Reference: article PMC8954350, “Non-Canonical Cannabinoid Receptors with Distinct Binding and Signaling Properties in Prostate and Other Cancer Cell Types Mediate Cell Death” (International Journal of Molecular Sciences, 2022)

Experiments:
[1] = tested on: CBRs expressed in HeLa cells; experiment: [^3H]CP-55,940 competitive binding screen, HeLa membranes; design: species or system human; conditions: 1 μM ligand, 0.2 nM radioligand
Experimental: The assay was conducted as previously detailed. […] All binding reactions were conducted in triplicate, in a final volume of 1 mL, and, following mixing, were incubated for 20 min in a 37 °C water bath to achieve equilibrium. After incubation, reactions were terminated by rapid vacuum filtration through Whatman GF/B glass fiber filters (Brandel; Gaithersburg, MD, USA), followed by three washes of 4 mls of ice-cold filtration buffer (50 mM Tris, pH 7.4, and 0.05% bovine serum albumin). Samples were punched out from filter papers into scintillation vials, to which 4 mls of ScintiverseTM-BDR cocktail scintillation fluid (Fisher Scientific; Hampton, NH, USA) was added. Filters were incubated at room temperature for 24 h in scintillation fluid, vortexed, and radioactivity (measured as DPMs) was quantified via a liquid scintillation spectrophotometer (Tri Carb 2100 TR Liquid Scintillation Analyzer, Packard Instruments, Meriden, CT, USA).

[2] = biological target: non-canonical CBRs expressed in DU-145; experiment: Homologous receptor binding, DU-145; design: species or system human; conditions: homologous competition with [^3H]WIN-55,212-2 (1 nM), read-out: affinity (KD)
Experimental: All binding reactions were conducted in triplicate, in a final volume of 1 mL, and, following mixing, were incubated for 20 min in a 37 °C water bath to achieve equilibrium. After incubation, reactions were terminated by rapid vacuum filtration and processed for radioactivity, as detailed in Section 4.5.1.
Curve-fitting and all statistical analyses were performed using GraphPad Prism® v8.0g (GraphPad Software, Inc.; San Diego, CA, USA). For qRT-PCR experiments, a one-way ANOVA, followed by Dunnett’s test as a post hoc test was utilized to compare fold change of PC-3 and DU-145 cancer cells to an arbitrary value of 1, set to the amount of mRNA transcribed from a human normal prostate control. For CBR screening studies, a one-sample t-test was performed to determine differences from 100% (e.g., to quantify compounds producing displacement), followed by a one-way ANOVA and Tukey’s post hoc tests to compare displacement produced by all drugs. […] For LDH release, ATP-dependent cell viability and JC-1 staining assays, drug effects were first analyzed by a one-sample t-test to determine differences from 0 or 100% (vehicle), followed by a one-way ANOVA and Dunnett’s post hoc test to compare all means. […]

[3] = tested on: canonical human CB2Rs (CHO-hCB2); design: method as in PMID 34592231; conditions: 1 μM ligand, 1 nM radioligand, CHO-hCB2 membranes; cited from earlier work

Cc1c(C(=O)c2cccc3ccccc23)c2cccc3c2n1[C@H](CN1CCOCC1)CO3 [WIN-55,212-2]
displacement of [^3H]CP-55,940 [1]: neither the non-selective CBR ligand CP-55,940 nor WIN-55,212-2 produced significant displacement | Kd [2]: 4.3 ± 0.89 nM | displacement of [^3H]WIN-55,212-2 (Figure 1B) [3]: produced near or complete displacement
